The conditions of data set [1]: drug substance, crystalline solid.
Data set [2] deals with tumor models.
For data set [3], the system named is tumor models. Put plainly: animal or person. The conditions noted are these: read-out: PARP inhibition.
In data set [4] the test system is platinum-sensitive recurrent epithelial ovarian, fallopian tube, or primary peritoneal cancer. The conditions noted are these: niraparib vs placebo. From the text:
All patients had received at least two prior platinum-containing regimens and were in response (complete or partial) to their most recent platinum-based regimen. Eligible patients were assigned to one of two cohorts based on the results of a germline BRCA mutation test. […] Randomization occurred within 8 weeks of the last dose of the most recent platinum-containing regimen. […] Clinic visits occurred each cycle (4 weeks±3 days). […] Prior to unblinding of the study, tumors of patients randomized to the non-gBRCAmut cohort were tested for the presence of homologous recombination deficiency (HRD) using the Myriad myChoice® HRD test, which evaluates three independent biomarkers of tumor genome instability: loss of heterozygosity, telomeric allelic imbalance, and large-scale state transitions. Tumors with homologous recombination deficiencies and those with somatic BRCA mutations were defined as HRD positive (HRDpos). The primary efficacy analysis for PFS was prospectively defined and assessed for the gBRCAmut cohort. The primary efficacy analysis for PFS was prospectively defined and assessed for the non-gBRCAmut cohort with a hierarchical testing schema. In the first step, PFS was assessed in the group of patients with HRDpos tumors and if significant, PFS was assessed in the overall non-gBRCAmut cohort. Secondary efficacy endpoints included chemotherapy-free interval (CFI), time to first subsequent therapy (TFST), PFS after the first subsequent therapy (PFS2), time to second subsequent therapy (TSST) and OS (overall survival).

Like-named read-outs stand apart in the source and are kept apart here.

Regarding `Cc1ccc(S(=O)(=O)O)cc1.NC(=O)c1cccc2cn(-c3ccc([C@@H]4CCCNC4)cc3)nc12` [Niraparib tosylate monohydrate, 2-{4-[(3S)-piperidin-3-yl]phenyl}-2H-indazole 7-carboxamide 4-methylbenzenesulfonate hydrate (1:1:1)], in data set [1], the hygroscopicity result is recorded as “non-hygroscopic”.

What is called inhibition is how much of the control response was suppressed. With `NC(=O)c1cccc2cn(-c3ccc([C@@H]4CCCNC4)cc3)nc12` [Niraparib], the tumor regression result in the data set on tumor models [2] (50 mg/kg, daily dosing) was “tumor regression”; in the data set on tumor models [2] (dose of 75 mg/kg, same model) it was “did not result in tumor regression”; in the data set with tumor models [2] (dosing switched from 75 mg/kg to 50 mg/kg), “tumor regression was achieved”. Besides, the inhibition at 50 mg/kg in the data set with tumor models [3] is above 90%. The “CFI HR” value is given as 0.26 in data set [4] (gBRCAmut cohort) and 0.50 in data set [4] (non-gBRCAmut cohort). The results for the “TFST HR” value in data set [4] (gBRCAmut cohort) and in data set [4] (non-gBRCAmut cohort) were 0.31 and 0.55, respectively.

For the origin of these results see US11730725B2 (Tesaro, Inc., priority 2017, dated 2023).
